From patent publication US20260283124A1, “NON-HUMAN ANIMAL, KIT, AND METHOD FOR PRODUCING REPLACEMENT ORGAN” (THE JIKEI UNIVERSITY, priority 2023, published 2026)
Entries after “also recorded” stand apart in the source; their conditions may differ. Like-named read-outs stand apart in the source and are kept apart here.

Key:
NPCs [1] = experiment: Culture of fetal kidney of single allele knock-in (heterozygous) mice with CID and/or AT406; assay type: cell-based, mouse
[2] = test system: Six2-positive nephron progenitor cells; experiment: TUNEL staining of organ-cultured E13 fetal kidney of Six2-iCaspase9-tdTomato mouse; assay type: cell-based; conditions: 100 nM CID, 12 hours after administration
Method: The kidney was excised from an E13 fetus of the Six2-iCaspase9-tdTomato mouse prepared in Experimental Example 1, and organ culture was performed on a Transwell. Apoptosis was evaluated by TUNEL staining after collection at 12 and 18 hours following the administration of 100 nM CID to the culture medium.

NPCs [3] = experiment: Administration to heterozygous neonatal mice, CID alone or combined with AT406; assay type: in vivo, mouse
[4] = test system: Six2-positive nephron progenitor cells; experiment: Intraperitoneal administration to neonatal Six2-iCaspase9-tdTomato mice, kidneys collected 48 hours later; assay type: in vivo, mouse
Method: AP20187 (CID) was intraperitoneally administered to neonatal Six2-iCaspase9-tdTomato mice prepared in Experimental Example 1, and the […] mouse kidneys were collected 48 hours later.

NPCs [5] = experiment: Culture of kidneys of E13.5 fetuses of both allele knock-in (homozygous) mice with CID; assay type: cell-based, mouse; conditions: 100 nM of CID, homozygous E13.5 fetal kidney culture
Method: In a case where the kidneys of E13.5 fetuses of both allele knock-in (homozygous) mice were collected, CID was added thereto, and the kidneys were cultured, it was confirmed that 90% or more of NPCs were removed by adding 100 nM of CID (see FIG. 10).

glomeruli = experiment: Nephron replacement: rat renal progenitor cells injected into homozygous fetal kidney, CID-added culture medium, then transplanted into immunodeficient mice; assay type: in vivo, mouse; conditions: rat RPCs injected, day 14 after transplant into immunodeficient mice
Method: It was verified whether or not the replacement of nephron could be induced by transplanting the exogenous NPC at the same time as the removal of the NPC of the fetal kidney (see FIG. 20). In a case where renal progenitor cells (RPCs) of rats were injected into a homozygous fetal kidney and cultured in a CID-added culture medium, it was confirmed that at the time point of day 4, the renal progenitor cells adhered to the ureteral bud of the host and formed a chimeric cap mesenchyme (see FIG. 21). In addition, in a case where the cells were transplanted into immunodeficient mice after the cell injection and allowed to develop in vivo, it was confirmed that at the time point of day 14, the rat-derived cells differentiated into glomeruli and renal tubules, and approximately 80% of the glomeruli were replaced with rat-derived cells. A rat distal tubule connected to the collecting duct derived from the fetal mouse kidney was also confirmed (see FIG. 22).

NPCs [6] = experiment: Subcutaneous administration to homozygous neonatal mice; assay type: in vivo, mouse
NPCs [7] = experiment: Intraperitoneal administration to pregnant dam carrying homozygous fetuses; assay type: in vivo, mouse
Excerpt: The CID was intraperitoneally administered to a pregnant dam carrying homozygous fetuses (see FIG. 15). As a result, it was confirmed that the kidney size of the neonates (PO) was reduced and the cap mesenchyme structure, which constitutes the nephrogenic niche formed by NPCs, was disrupted (see FIG. 16). […] Furthermore, a decrease in the number of glomeruli was also confirmed (see FIG. 18).

[8] = test system: Six2-positive nephron progenitor cells; experiment: Organ culture on Transwell of E11 fetal kidney of Six2-iCaspase9-tdTomato mouse with CID in medium; assay type: cell-based; conditions: for Expression of tdTomato fluorescence in nephron progenitor cells: second day after administration
Method: The kidney was excised from an E11 fetus of the Six2-iCaspase9-tdTomato mouse prepared in Experimental Example 1, and organ culture was performed on a Transwell. In the group in which AP20187 (CID) was administered to the culture medium, the expression of tdTomato fluorescence in nephron progenitor cells was reduced on the second day after administration (see FIG. 4).

nephron progenitor cells = experiment: Kidney organoid from nephron progenitor cells of Six2-iCaspase9-tdTomato mouse, CID administration; assay type: cell-based; conditions: with CID administration
Method: Nephron progenitor cells were isolated from the Six2-iCaspase9-tdTomato mouse prepared in Experimental Example 1, and a kidney organoid was prepared by three-dimensional culture. AP20187 (hereinafter, referred to as CID) was administered to the kidney organoid.

[9] = administration at E13.5, animal at 1 month of age
[10] = intraperitoneal to pregnant dam, homozygous fetuses

**Q.** Which NPC removal (NPCs [1]; single administration of AT406, heterozygous fetal kidney culture) does the source give for `CN[C@@H](C)C(=O)N[C@H]1CN(C(=O)CC(C)C)CC[C@H]2CC[C@@H](C(=O)NC(c3ccccc3)c3ccccc3)N2C1=O` [AT406] here?
**A.** NPC removal did not occur

**Q.** Which results are given for `CC[C@H](C(=O)N1CCCC[C@H]1C(=O)O[C@H](CCc1ccc(OC)c(OC)c1)c1cccc(OCC(=O)NCC(CNC(=O)COc2cccc([C@@H](CCc3ccc(OC)c(OC)c3)OC(=O)[C@@H]3CCCCN3C(=O)[C@@H](CC)c3cc(OC)c(OC)c(OC)c3)c2)CN(C)C)c1)c1cc(OC)c(OC)c(OC)c1` [CID, AP20187]?
**A.** Apoptosis by TUNEL staining, co-localization with Six2-positive nephron progenitor cells [2]: TUNEL positivity was observed; NPC removal (NPCs [3]): NPC removal does not occur; Nephron progenitor cell marker Six2 (immunostaining) in kidney [4]: disappeared; also recorded: removal of Six2-positive nephron progenitor cells in the neonatal kidney was observed; Nephron progenitor cells (red, tdTomato fluorescence) in kidney [4]: disappeared due to apoptosis; Nephron progenitor cells (red, tdTomato fluorescence) in kidney ([4]; listed as AP20187): removal of Six2-positive nephron progenitor cells in the neonatal kidney was observed; NPCs removed (NPCs [5]): ≥ 90%; NPC removal (NPCs [1]; 100 nM of CID alone, heterozygous fetal kidney culture): NPC removal was not confirmed; Glomeruli replaced with rat-derived cells (glomeruli): approximately 80%; NPC removal (NPCs [6]): NPC removal was confirmed; Survival of animals after birth (NPCs [7]; administration at E11.5): died due to severe renal failure; Survival of animals after birth (NPCs [7]; administration at E13.5): survival of animals was confirmed; Serum urea nitrogen (BUN) compared with the control (NPCs [7]; [9]): significantly increased; Urinary albumin-to-creatinine ratio (ACR) compared with the control (NPCs [7]; [9]): significantly increased; Cap mesenchyme structure (nephrogenic niche formed by NPCs) (NPCs [7]; [10]): disrupted; Kidney size of the neonates (P0) (NPCs [7]; [10]): reduced; NPCs by immunostaining (NPCs [7]; [10]): disappearance of the NPCs was confirmed; Number of glomeruli (NPCs [7]; [10]): decrease; Removal of Six2-positive nephron progenitor cells (immunostaining) ([8]; day 3): removal of Six2-positive nephron progenitor cells was confirmed; Expression of tdTomato fluorescence in nephron progenitor cells [8]: removal of nephron progenitor cells; Expression of tdTomato fluorescence in nephron progenitor cells ([8]; listed as AP20187): reduced; Apoptosis of nephron progenitor cells (immunostained image) (nephron progenitor cells): subjected to apoptosis; also recorded: Induced cell death of nephron progenitor cells was observed
